The values that follow come from patent publication US20220089592A1, “IMIDAZO[1,2-A]PYRIDINYL DERIVATIVES AS IRAK4 INHIBITORS” (priority 2019, published 2022).

One assay addresses T1, IRAK4 (Homo sapiens, UniProt Q9NWZ3).
T1 sequence (Q9NWZ3 1-460): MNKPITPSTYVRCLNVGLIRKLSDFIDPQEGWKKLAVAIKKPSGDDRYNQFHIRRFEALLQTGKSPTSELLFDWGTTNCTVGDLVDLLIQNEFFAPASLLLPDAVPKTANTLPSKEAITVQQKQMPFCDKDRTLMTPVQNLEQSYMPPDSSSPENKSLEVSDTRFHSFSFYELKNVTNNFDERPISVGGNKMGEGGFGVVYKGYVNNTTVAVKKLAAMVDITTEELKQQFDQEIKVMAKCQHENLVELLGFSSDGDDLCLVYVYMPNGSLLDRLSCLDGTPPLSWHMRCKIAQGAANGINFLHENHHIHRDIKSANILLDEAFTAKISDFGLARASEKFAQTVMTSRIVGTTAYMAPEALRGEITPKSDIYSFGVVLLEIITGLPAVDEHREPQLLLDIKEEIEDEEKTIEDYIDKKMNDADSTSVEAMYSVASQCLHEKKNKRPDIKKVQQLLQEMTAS
The experiment in a line: 2-hour 10 μM ATP Biochemical Assay (MesoScale Detection format; IRAK4 phosphorylation of biotin labeled IRAK1 activation loop peptide). The following applies: IRAK4 MSD BIOCHEMICAL (10 μM ATP) IC50 (μM), 1 nM IRAK4, 2 hours. As for the experimental part: The 2-hour 10 μM ATP Biochemical Assay employs a MesoScale Detection (MSD) format.
The activity is quenched with 11 μl of 70 mM EDTA, pH 8.
To detect the phosphorylated biotinylated peptide substrate, 30 μl of the quenched reaction mixture is added to equivalent wells of a 384 well streptavidin coated MesoScale plate (Meso Scale Discovery #L21SA-1). After a 1 hour incubation of the plate for 1 hour at room temperature with gentle mixing, the plate wells are washed 3 times with 50 mM Tris, pH 7.5, 150 mM NaCl, 0.02% Tween-20.
A 25 μl volume of 1:500 anti-P-Threonine Rabbit polyclonal Antibody plus 1:500 Goat-anti-Rabbit Sulfo Tag Antibody (Meso Scale Discovery R32AB-1) in 50 mM Tris, pH 7.5, 150 mM NaCl, 0.02% Tween-20 plus 2% BSA is then added to each well. After a 1-hour incubation of the plate for 1 hour at room temperature with gentle mixing, the plate wells are washed, 3 times with 50 mM Tris, pH 7.5, 150 mM NaCl, 0.02% Tween-20. A 40 μl volume of 2×MSD Read Buffer (Meso Scale Discovery R92TC-1) is added to each well, and the plate is read immediately in an MSD Plate Reader (Meso Scale Discovery).
By IC50 is commonly meant the point on the concentration scale where inhibition reaches its midpoint. Higher therefore signals weaker potency. Turning to `CCOc1cc2nc(C3CCN(C)C(=O)C3)cn2cc1NC(=O)c1cccc(C(F)F)n1` (racemic) [Example 75, 6-(difluoromethyl)-N-(7-ethoxy-2-(1-methyl-2-oxopiperidin-4-yl)imidazo[1,2-a]pyridin-6-yl)picolinamide], inhibition was half-maximal at 0.001 µM (IC50).

The molecule `C[C@H](COc1cc2nc(C3CC3)cn2cc1NC(=O)c1cccc(C(F)F)n1)n1ccccc1=O` (single isomer, unassigned) [Example 7] displayed an IC50 of 0.28 µM.

For the molecule `C[C@@H](COc1cc2nc(C3CC3)cn2cc1NC(=O)c1cccc(C(F)F)n1)n1ccccc1=O` (single isomer, unassigned) [Example 8], the IC50 is 0.14 µM.

In turn, `CCOc1cc2nc(CC3CCOC3)cn2cc1NC(=O)c1coc(-c2cnn(C)c2)n1` (single isomer, unassigned) [Example 251, N-(7-ethoxy-2-((tetrahydrofuran-3-yl)methyl)imidazo[1,2-a]pyridin-6-yl)-2-(1-methyl-1H-pyrazol-4-yl)oxazole-4-carboxamide] came in with an IC50 of 0.002 µM.

The molecule `CCOc1cc2nc(CC3CCOC3)cn2cc1NC(=O)c1coc(-c2cnn(C)c2)n1` (single isomer, unassigned) [Example 252, N-(7-ethoxy-2-((tetrahydrofuran-3-yl)methyl)imidazo[1,2-a]pyridin-6-yl)-2-(1-methyl-1H-pyrazol-4-yl)oxazole-4-carboxamide] registered an IC50 of 0.001 µM.

Turning to `COc1cc(NC(=O)c2cccc(C(F)F)n2)cn2cc(C3CC3(F)F)nc12` (single isomer, unassigned) [Example 513, N-(2-(2,2-difluorocyclopropyl)-8-methoxyimidazo[1,2-a]pyridin-6-yl)-6-(difluoromethyl)picolinamide], the midpoint of inhibition, the IC50, lay at 0.015 µM.

The molecule `COc1cc(NC(=O)c2cccc(C(F)F)n2)cn2cc(C3CC3(F)F)nc12` (single isomer, unassigned) [Example 514, N-(2-(2,2-difluorocyclopropyl)-8-methoxyimidazo[1,2-a]pyridin-6-yl)-6-(difluoromethyl)picolinamide] returned an IC50 of 0.016 µM.

Regarding `CC(COc1cc2nc(C3CC3)cn2cc1NC(=O)c1cccc(C(F)F)n1)n1ccccc1=O` (stereo not shown) [Example 6, N-(2-cyclopropyl-7-(2-(2-oxopyridin-1(2H)-yl)propoxy)imidazo[1,2-a]pyridin-6-yl)-6-(difluoromethyl)picolinamide], the IC50 came to 0.19 µM.

`O=C(Nc1cn2cc(C3CC3)nc2cc1O)c1cccc(C(F)F)n1` [Example 10, N-(2-cyclopropyl-7-hydroxyimidazo[1,2-a]pyridin-6-yl)-6-(difluoromethyl)picolinamide] showed an IC50 of 0.059 µM.

Turning to `CC[C@@H]1[C@H](F)C(=O)N[C@@H]1COc1cc2nc(C3CC3)cn2cc1NC(=O)c1cccc(C(F)F)n1` [Example 11, N-(2-cyclopropyl-7-(((2S,3S,4S)-3-ethyl-4-fluoro-5-oxopyrrolidin-2-yl)methoxy)imidazo[1,2-a]pyridin-6-yl)-6-(difluoromethyl)picolinamide], 0.079 µM corresponded to half-maximal inhibition (IC50).

`CCOc1cc(NC(=O)c2cccc(C(F)F)n2)cn2cc(C3CC3)nc12` [Example 28, N-(2-cyclopropyl-8-ethoxyimidazo[1,2-a]pyridin-6-yl)-6-(difluoromethyl)picolinamide] yielded an IC50 of 0.043 µM.

As to `CCOc1cc2nc(C3CC3)c(F)n2cc1NC(=O)c1cccc(C(F)F)n1` [Example 29, N-(2-cyclopropyl-7-ethoxy-3-fluoroimidazo[1,2-a]pyridin-6-yl)-6-(difluoromethyl)picolinamide], the IC50 came out at 0.023 µM.

The molecule `O=C(Nc1ccc2nc(C3CC3)cn2c1)c1cccc(C(F)F)n1` [Example 30, N-(2-cyclopropylimidazo[1,2-a]pyridin-6-yl)-6-(difluoromethyl)picolinamide] had an IC50 of 0.048 µM.

`O=C(Nc1cn2cc(C3CC3)nc2cn1)c1cccc(C(F)F)n1` [Example 31, N-(2-cyclopropylimidazo[1,2-a]pyrazin-6-yl)-6-(difluoromethyl)picolinamide] returned an IC50 of 0.089 µM.

Molecule `CCOc1cc2nc(CC)cn2cc1NC(=O)c1cccc(NC(C)=O)n1` [Example 32, 6-acetamido-N-(7-ethoxy-2-ethylimidazo[1,2-a]pyridin-6-yl)picolinamide] displayed an IC50 of 0.064 µM.

Consider `CCOc1cc2nc(CC)cn2cc1NC(=O)c1ccc(C)c(C)n1` [Example 34, N-(7-ethoxy-2-ethylimidazo[1,2-a]pyridin-6-yl)-5,6-dimethylpicolinamide], for which the IC50 turned out to be 0.023 µM.

`CCOc1cc2nc(CC)cn2cc1NC(=O)c1ccc(F)c(F)c1` [Example 35, N-(7-ethoxy-2-ethylimidazo[1,2-a]pyridin-6-yl)-3,4-difluorobenzamide] had an IC50 of 2.5 µM.

With `CCOc1cc2nc(CC)cn2cc1NC(=O)c1nc(C(F)(F)F)ccc1F` [Example 36, N-(7-ethoxy-2-ethylimidazo[1,2-a]pyridin-6-yl)-3-fluoro-6-(trifluoromethyl)picolinamide], the IC50 is 0.26 µM.

As to `CCOc1cc2nc(CC)cn2cc1NC(=O)c1ccc2c(c1)COC2` [Example 37, N-(7-ethoxy-2-ethylimidazo[1,2-a]pyridin-6-yl)-1,3-dihydroisobenzofuran-5-carboxamide], the IC50 worked out at 1.7 µM.

Molecule `CCOc1cc2nc(CC)cn2cc1NC(=O)c1cc2n(n1)CCC2` [Example 38, N-(7-ethoxy-2-ethylimidazo[1,2-a]pyridin-6-yl)-5,6-dihydro-4H-pyrrolo[1,2-b]pyrazole-2-carboxamide] displayed an IC50 of 2.6 µM.

The molecule `CCOc1cc2nc(CC)cn2cc1NC(=O)c1cccc2c1OCCN2C` [Example 39, N-(7-ethoxy-2-ethylimidazo[1,2-a]pyridin-6-yl)-4-methyl-3,4-dihydro-2H-benzo[b][1,4]oxazine-8-carboxamide] displayed an IC50 of 0.016 µM.

On to `CCOc1cc2nc(CC)cn2cc1NC(=O)c1ccc(F)cc1F` [Example 40, N-(7-ethoxy-2-ethylimidazo[1,2-a]pyridin-6-yl)-2,4-difluorobenzamide], for which the half-maximal inhibitory concentration (IC50) worked out at 0.34 µM.

The molecule `CCOc1cc2nc(CC)cn2cc1NC(=O)c1ccc2c(c1)NC(=O)C2` [Example 41, N-(7-ethoxy-2-ethylimidazo[1,2-a]pyridin-6-yl)-2-oxoindoline-6-carboxamide] yielded an IC50 of 0.14 µM.

The molecule `CCOc1cc2nc(CC)cn2cc1NC(=O)c1ccc2c(c1)OCC2` [Example 42, N-(7-ethoxy-2-ethylimidazo[1,2-a]pyridin-6-yl)-2,3-dihydrobenzofuran-6-carboxamide] had an IC50 of 1.3 µM.

For `CCOc1cc2nc(CC)cn2cc1NC(=O)c1ccc2c(c1)COCC2` [Example 43, N-(7-ethoxy-2-ethylimidazo[1,2-a]pyridin-6-yl)isochromane-7-carboxamide], the IC50 amounted to 2.6 µM.

Regarding `CCOc1cc2nc(CC)cn2cc1NC(=O)c1cc(C)c(C)cn1` [Example 45, N-(7-ethoxy-2-ethylimidazo[1,2-a]pyridin-6-yl)-4,5-dimethylpicolinamide], the half-maximal inhibitory concentration (IC50) is 2.3 µM.

In turn, `CCOc1cc2nc(CC)cn2cc1NC(=O)c1ccc(Cl)cn1` [Example 46, 5-chloro-N-(7-ethoxy-2-ethylimidazo[1,2-a]pyridin-6-yl)picolinamide] gave an IC50 of 0.083 µM.

For the molecule `CCOc1cc2nc(CC)cn2cc1NC(=O)c1ccc2c(c1)CCOC2` [Example 47, N-(7-ethoxy-2-ethylimidazo[1,2-a]pyridin-6-yl)isochromane-6-carboxamide], the IC50 is 1.1 µM.

`CCOc1cc2nc(CC)cn2cc1NC(=O)c1nc(C)c(C)s1` [Example 48, N-(7-ethoxy-2-ethylimidazo[1,2-a]pyridin-6-yl)-4,5-dimethylthiazole-2-carboxamide] showed an IC50 of 2 µM.

Regarding `CCOc1cc2nc(CC)cn2cc1NC(=O)c1ccc(F)c(C(F)(F)F)n1` [Example 51, N-(7-ethoxy-2-ethylimidazo[1,2-a]pyridin-6-yl)-5-fluoro-6-(trifluoromethyl)picolinamide], the IC50 was determined as 0.21 µM.

Another assay has as its target T1, IRAK4. The experiment in a line: 2-hour 1 mM ATP IRAK4 Biochemical assay (as above, but with 100 pM IRAK4 and 1 mM ATP). Conditions: IRAK4 MSD BIOCHEMICAL (1 mM ATP) IC50 (μM), 100 pM IRAK4, 2 hours. The essentials: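 Run with 100 pM IRAK4 and 1 mM ATP for 2 hours, quenched with EDTA pH 8. Phosphorylated biotinylated peptide captured on streptavidin MSD plates and detected with anti-phosphothreonine antibody plus Sulfo-Tag secondary by electrochemiluminescence.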
Consider `CC(C)Oc1nc2nc(C34COC(C)(C3)C4)c(Cl)n2cc1NC(=O)c1cccc(C(F)F)n1` [Example 576, N-(3-chloro-7-isopropoxy-2-(1-methyl-2-oxabicyclo[2.1.1]hexan-4-yl)imidazo[1,2-a]pyrimidine-6-yl)-6-(difluoromethyl)picolinamide 2,2,2-trifluoroacetate], for which the IC50 is 0.199 µM.
